Source: publication PMC9287224 (Clinical Pharmacokinetics, 2022)
Counter-ions that a name gives are not always drawn.

Key:
[1] = for reduction of the elimination rate: patients with Child C cirrhosis vs control subjects; for decrease in Cl/F: Child C cirrhosis compared with control subjects; for decrease of the elimination rate by liver cirrhosis: liver cirrhosis (Child class not stated) vs control subjects
[2] = monkeys; cited from earlier work
[3] = Galactose elimination capacity; format: in vivo, human; conditions: patients with Child C cirrhosis
CYP2C9 = CYP2C9 (Homo sapiens, UniProt P11712); conditions: patients with Child C cirrhosis vs control subjects
CYP2C9, sequence (P11712 whole entry): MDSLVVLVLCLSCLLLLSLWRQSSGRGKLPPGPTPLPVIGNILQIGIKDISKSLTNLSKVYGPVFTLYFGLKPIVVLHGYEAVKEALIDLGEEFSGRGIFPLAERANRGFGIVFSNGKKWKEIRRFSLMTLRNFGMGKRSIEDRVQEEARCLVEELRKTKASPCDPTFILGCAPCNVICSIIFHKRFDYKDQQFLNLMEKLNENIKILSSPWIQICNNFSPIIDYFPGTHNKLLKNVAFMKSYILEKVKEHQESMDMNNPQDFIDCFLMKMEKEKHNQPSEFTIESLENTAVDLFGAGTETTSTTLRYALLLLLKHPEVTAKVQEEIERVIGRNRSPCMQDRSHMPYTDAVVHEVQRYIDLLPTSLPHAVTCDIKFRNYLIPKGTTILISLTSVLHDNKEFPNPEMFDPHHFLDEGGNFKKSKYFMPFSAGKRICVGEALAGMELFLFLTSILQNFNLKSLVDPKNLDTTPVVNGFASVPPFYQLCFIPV

## Cn1c(=O)c2c(ncn2C)n(C)c1=O [Caffeine, caffeine]
[1]
  reduction of the elimination rate: 51%

## O=C1Nc2ccc(Cl)cc2[C@@](C#CC2CC2)(C(F)(F)F)O1 [Efavirenz, efavirenz]
[1]
  reduction of the elimination rate: 30%
[2]
  bioavailability: 42%

## COc1ccc2[nH]c([S+]([O-])Cc3ncc(C)c(OC)c3C)nc2c1 (stereo not shown) [Omeprazole, omeprazole]
[1]
  decrease in Cl/F: 91%
  decrease of the elimination rate by liver cirrhosis: 75%

## O=C[C@H](O)[C@@H](O)[C@@H](O)[C@H](O)CO [Galactose, galactose]
[3]
  galactose elimination capacity as % of controls (dropping to): 18%

## Cc1ncc2n1-c1ccc(Cl)cc1C(c1ccccc1F)=NC2 [Midazolam, midazolam]
[1]
  decrease in Cl/F: 84%
[1]; assuming equal volume of distribution in cirrhosis and controls
  ratio of the bioavailabilities Fcirrhosis Child C/Fcontrols: 1.73
[1]; human, in vivo, clearance corrected for bioavailability, controls
  clearance: ~1330 mL/min

## CC(C(=O)O)c1ccc(-c2ccc(O)cc2)c(F)c1 (stereo not shown) [4-Hydroxyflurbiprofen, 4-hydroxyflurbiprofen]
[1]; liver cirrhosis vs control subjects (Child class not stated)
  increase in the AUC0–24h by liver cirrhosis: 58%

## CC(C(=O)O)c1ccc(-c2ccccc2)c(F)c1 (stereo not shown) [Flurbiprofen, flurbiprofen]
CYP2C9
  change of metabolic ratio 4-hydroxyflurbiprofen/flurbiprofen: remained unchanged

## COCCc1ccc(OCC(O)CNC(C)C)cc1 (stereo not shown) [Metoprolol, metoprolol tartrate]
[1]
  decrease of the elimination rate by liver cirrhosis: 37%
[1]; patients with Child C cirrhosis
  Cl/F as % of control subjects (dropped to): 22%
